Drawing on patent publication US10682421B2, “Nanoparticle composition for use in targeting cancer stem cells and method for treatment of cancer” (City University of Hong Kong, priority 2015, dated 2020), this text covers cell survival rate for one compound.

For this experiment, the system named is LCSCs. Nature of the experiment: In vitro thermotherapy and chemotherapy under AMF or water bath, MTT assay. Format: cell-based, human. Conditions: 37° C. under AMF for 30 min, 100 mg/mL for 1 h. As to the method: The AMF was generated by a 5 cm diameter 8-turn induction coil powered by a 3 kW alternating magnetic field generator. LCSCs were seeded in the 6-well plate at a density of 5×10^4 cells/mL. After 24 h incubation, cells were separately treated with 100 mg/mL CD20-Fe3O4@SiNPs, CD20-HSPI&Fe3O4@SiNPs, Fe3O4@SiNPs, HSPI&Fe3O4@SiNPs, SiNPs, and HSPI for 1 h. Cells without treatment were used as control. Following two washes with PBS, cells were placed inside the coil and heated to a defined temperature (between 37 and 50° C.) for 30 min. While frequency was kept constant at 350 kHz and temperature was monitored by using a thermometer immersed in a test tube containing 2 mL of solution. The traditional heating method (water bath heater) was used to compare with AMF heating. Cell survival was assessed by MTT assay.

On to `CO[C@H]1/C=C\C=C(/C)C(=O)NC2=CC(=O)C(NCCN(C)C)=C(C[C@@H](C)C[C@H](OC)[C@H](O)[C@@H](C)/C=C(\C)[C@@H]1OC(N)=O)C2=O` [HSPI, 17-(Dimethylaminoethylamino)-17-demethoxygeldanamycin], for which the cell survival rate was found to be 77%.
